# Measurements reported in publication PMC5342726, “Identification of small molecule inhibitors of ERCC1-XPF that inhibit DNA repair and potentiate cisplatin efficacy in cancer cells” (Oncotarget, 2016).
# What was measured:
# H460 cells = assay: Cisplatin intrastrand adduct repair by ELISA; assay type: cell-based; settings: 72 hours (last time point), compound 15 μM 2 h then cisplatin at IC90 2 h; relative to 0 hour
# ERCC1 protein = assay: Western blot of ERCC1 protein stability; assay type: cell-based; settings: 50 μM, 24, 48 and 72 hours, compared to cisplatin control treatment
# Experimental: In order to study if the compounds' inhibitory activity of ERCC1-XPF incision is due to inhibition of DNA binding ability, we performed EMSAs. One possibility for ERCC1-XPF enzyme inhibition is via inhibition of the ERCC1-XPF binding to DNA. In this assay, we incubated the titrated Hit 1 or 2 respectively with purified ERCC1-XPF on ice and reactions were initiated by the addition of the 5'-[^32P] radiolabeled DNA substrate 37°C. The samples were separated on a 10% native gel and the products were visualized via phosphorimager analysis. […] If these compounds were affecting the protein-protein interaction between ERCC1 and XPF, we would expect to observe loss of protein following treatment similar to what we have observed with ERCC1 and XPF knockdowns.
# Supplementary Figure S3: A. Analysis of 16168 and 143099 on XPG incision activity. Compounds were titrated and inhibition of
# XPG incision activity was quantified for 16168 (open circles) or 143099 (filled circles). The results are presented as the mean ± SEM of 3
# independent experiments. B. Western bots assessing ERCC1 protein stability following cisplatin (IC50 concentration), 143099 (50 μM) and […]
# ERCC1-XPF = target: T1, ERCC1-XPF (Homo sapiens, UniProt P07992+Q92889); assay: Gel-based in vitro incision assay, ERCC1-XPF; assay type: biochemical; settings: purified ERCC1-XPF, 5'-32P DNA substrate, 37°C; read-out: IC50 from the gel-based assay
# T1 construct: made in house; host or cells: Sf9 insect cells, baculovirus (obtained from Aziz Sancar)
# T1 sequence (Q92889 1-916): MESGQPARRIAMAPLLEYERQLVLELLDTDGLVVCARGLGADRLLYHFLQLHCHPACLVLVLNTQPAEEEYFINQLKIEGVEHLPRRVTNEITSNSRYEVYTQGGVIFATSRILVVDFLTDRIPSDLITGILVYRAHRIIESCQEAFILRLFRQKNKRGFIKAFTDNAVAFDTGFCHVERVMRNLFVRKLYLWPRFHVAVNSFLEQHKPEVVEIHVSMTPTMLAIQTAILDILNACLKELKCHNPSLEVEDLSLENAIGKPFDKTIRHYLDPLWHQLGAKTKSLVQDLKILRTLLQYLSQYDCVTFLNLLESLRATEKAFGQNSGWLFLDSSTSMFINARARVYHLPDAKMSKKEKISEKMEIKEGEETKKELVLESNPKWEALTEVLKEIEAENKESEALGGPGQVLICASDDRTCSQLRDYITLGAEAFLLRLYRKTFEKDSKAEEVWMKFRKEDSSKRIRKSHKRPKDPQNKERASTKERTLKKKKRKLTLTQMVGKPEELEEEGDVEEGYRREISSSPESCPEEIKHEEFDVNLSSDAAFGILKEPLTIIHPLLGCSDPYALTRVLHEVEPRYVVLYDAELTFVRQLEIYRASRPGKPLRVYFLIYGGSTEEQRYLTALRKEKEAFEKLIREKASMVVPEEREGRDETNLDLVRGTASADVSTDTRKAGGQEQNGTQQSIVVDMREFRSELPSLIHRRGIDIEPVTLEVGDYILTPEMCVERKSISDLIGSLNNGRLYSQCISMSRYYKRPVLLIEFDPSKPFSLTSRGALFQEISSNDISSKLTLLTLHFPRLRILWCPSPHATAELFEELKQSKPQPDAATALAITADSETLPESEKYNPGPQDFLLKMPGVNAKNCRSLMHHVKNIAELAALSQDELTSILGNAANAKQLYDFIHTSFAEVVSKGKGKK
# T1 sequence (P07992 1-297): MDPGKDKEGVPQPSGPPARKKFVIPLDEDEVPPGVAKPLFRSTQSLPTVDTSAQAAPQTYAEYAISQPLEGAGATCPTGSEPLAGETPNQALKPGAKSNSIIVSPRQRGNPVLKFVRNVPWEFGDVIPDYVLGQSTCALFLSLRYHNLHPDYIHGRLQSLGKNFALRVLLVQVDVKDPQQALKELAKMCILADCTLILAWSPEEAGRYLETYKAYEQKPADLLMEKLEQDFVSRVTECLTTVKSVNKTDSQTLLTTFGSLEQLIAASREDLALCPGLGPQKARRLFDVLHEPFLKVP
# Experimental: The gel-based in vitro incision assay has been described and extensively used. Here, we titrated Hit 1 (Figure 2A) with ERCC1-XPF or control endonuclease HhaI (Figure 2B) on ice and reactions were initiated by the addition of the 5'-[^32P] radiolabeled DNA substrate at 37°C. The products are visualized via phosphorimager analysis and the ERCC1-XPF or HhaI incised product is illustrated as a faster migrating band in the gel (Figure 2A and 2B).
# Hits from the HTS fluorescence screen were validated in a gel based nuclease activity assay as previously described. This assay is robust and highly quantitative. Briefly, the 26- mer DNA substrate (Figure 1) was labeled on the 5'-terminus with [γ^32P]-ATP using T4 polynucleotide kinase (NEB) for 30 minutes at 37°C. The 5'-labeled DNA substrate was annealed to its complementary strand by heating to 95°C for 5 minutes, followed by 65°C and then 37°C for a total of 2 hours. This substrate was gel-purified on a 10% native polyacrylamide gel in TBE (Tris, borate, EDTA electrophoresis buffer), developed, cut and kept for gel elution overnight at 4°C. Post gel elution, the substrate was ethanol precipitated and the counts were determined. The final substrate was stored at −20°C. […]
# HhaI = assay: Gel-based nuclease assay, HhaI; assay type: biochemical; settings: compound titration
SMILES,intrastrand adducts remaining (H460 cells),effect on ERCC1 protein levels (ERCC1 protein),IC50 (ERCC1-XPF),"inhibition of HhaI nuclease activity, gel-based assay (HhaI)"
Cc1ccc(S(=O)(=O)Oc2cc(S(=O)(=O)O)cc3cc(S(=O)(=O)O)cc(N)c23)cc1 [NSC16168],~ 60%,neither Hit 1 nor Hit 2 affects ERCC1 protein levels,~500 nM,does not inhibit the nuclease activity
Oc1cc(O)c2c(c1)OC(c1ccc(O)c(O)c1)C(O)C2c1c(O)cc(O)c2c1OC(c1ccc(O)c(O)c1)C(O)C2 (centres unmarked) [NSC143099],~ 65%,neither Hit 1 nor Hit 2 affects ERCC1 protein levels,~25 nM,does not inhibit the nuclease activity
